Measurements reported in patent publication US20200297746A1, “COMPOSITION FOR REDUCING WEIGHT AND LOWERING LIPID, PREPARATION METHOD THEREFOR AND USE THEREOF” (CATCH BIO-SCIENCE & TECHNOLOGY CO., LTD., priority 2017, published 2020).

What was measured:
[1] = tested on: hyperlipemia model rats fed with the high-fat feed; assay: Blood lipid lowering effect in rats fed high-fat feed, serum biochemical parameters by enzymatic method; type: in vivo, male Spague-Dawlay (SD) Rats; conditions: high-fat feed SD rats, 80 mg/kg via lavage once daily for 7 weeks, x ± s, n = 10
Excerpt: The feed is commercially available. The high-fat feed comprises 75% base feed, 2% cholesterol, 0.5% sodium cholate, 15% lard, and 7.5% egg yolk. 150 male Spague-Dawlay (SD) Rats of clean grade, each aged 4 weeks and weighed 150-180 g, are provided by Shanghai Lingchang Biotechnology Co., Ltd. The rats are fed in separate plastic cages, given free access to water and feed for 7 days to adapt to the environment, and then quarantined.
140 rats of similar weight are selected from the 150 rats, randomly divided into 14 groups, with 10 rats in each group, including experimental groups 1-8, comparative experiment groups 1-4, a model control group and a blank control group. Rats in the blank control group are fed with the base feed, and rats in other groups are fed with the high-fat feed.
Rats in the experimental groups 1-8 are respectively administered via lavage with 80 mg/kg of the pharmaceutical compositions prepared in Examples 1-8; rats in the comparative experiment groups 1-4 are respectively administered via lavage with 80 mg/kg of phloridzin, 80 mg/kg of the extract from Curcuma longa L., 80 mg/kg of epigallocatechin gallate and 80 mg/kg of the extract from sennae folium; and rats in the model control group and the blank control group are administered via lavage with equivalent amounts of saline.
Rats in each group receive administration once daily for 7 continuous weeks.
(3) After 7 weeks of administration, blood are collected from orbital posterior venous plexus of the rats and analyzed with an enzymatic method on a full-automatic biochemical analyzer to quantitatively determine levels of triglycerides (TG), total cholesterol (TC), high density lipoprotein cholesterol (HDL-C), and low density lipoprotein cholesterol (LDL-C) in serum.
Data processing is performed using SPSS 20.0 software. Differences between the groups are analyzed using a single-factor variance analysis.

[2] = tested on: obesity model rats fed with the high-fat feed; assay: Weight reducing effect in rats fed high-fat feed, 7 weeks of administration via lavage; type: in vivo, male Spague-Dawlay (SD) Rats; conditions: high-fat feed SD rats, 80 mg/kg via lavage once daily for 7 weeks, x ± s, n = 10
Excerpt: The feed is commercially available. The high-fat feed comprises 75% base feed, 2% cholesterol, 0.5% sodium cholate, 15% lard, and 7.5% egg yolk. 150 male Spague-Dawlay (SD) Rats of clean grade, each aged 4 weeks and weighed 150-180 g, are provided by Shanghai Lingchang Biotechnology Co., Ltd. The rats are fed in separate plastic cages, given free access to water and feed for 7 days to adapt to the environment, and then quarantined. 140 rats of similar weight are selected from the 150 rats, randomly divided into 14 groups, with 10 rats in each group, including experimental groups 1-8, comparative experiment groups 1-4, a model control group and a blank control group. Rats in the blank control group are fed with the base feed, and rats in other groups are fed with the high-fat feed. Rats in the experimental groups 1-8 are respectively administered via lavage with 80 mg/kg of the pharmaceutical compositions prepared in Examples 1-8; rats in the comparative experiment groups 1-4 are respectively administered via lavage with 80 mg/kg of phloridzin, 80 mg/kg of the extract from Curcuma longa L., 80 mg/kg of epigallocatechin gallate and 80 mg/kg of the extract from […] folium; and rats in the model control group and the blank control group are administered via lavage with equivalent amounts of saline. Rats in each group receive administration once daily for 7 continuous weeks. (1) After 7 weeks of administration, the weight and weight gain of rats in each group are observed and recorded; (2) Rats are anesthetized with ether, and fat pads surrounding the genitalia and kidney and the fat of the omentum are separated and weighed. A fat-to-weight ratio is calculated according to the following equation: fat-to-weight ratio (%)=(weight of fat surrounding the genitalia+weight of fat surrounding kidney+weight of fat of the omentum)/body weight×100%; Data processing is performed using SPSS 20.0 software. Differences between the groups are analyzed using a single-factor variance analysis.

Row | SMILES | HDL-C [1] [mmol/L] | LDL-C [1] [mmol/L] | TC [1] [mmol/L] | TG [1] [mmol/L] | Body weight gain [2] [g] | Fat-to-weight ratio [2] [%]
1 | O=C(CCc1ccc(O)cc1)c1c(O)cc(O)cc1O[C@@H]1O[C@H](CO)[C@@H](O)[C@H](O)[C@H]1O [Comparative experiment Group 1, phloridzin] | 0.72 ± 0.10 | 0.49 ± 0.10 | 2.21 ± 0.51 | 1.56 ± 0.39 | 161.35 ± 20.01 | 5.87 ± 0.72
2 | O=C(O[C@@H]1Cc2c(O)cc(O)cc2O[C@@H]1c1cc(O)c(O)c(O)c1)c1cc(O)c(O)c(O)c1 [Comparative experiment Group 3, epigallocatechin gallate] | 0.59 ± 0.12 | 0.55 ± 0.12 | 2.55 ± 0.43 | 1.77 ± 0.41 | 189.76 ± 22.25 | 7.48 ± 0.53
